Test results published in patent US5948814A, “Genistein for the treatment of cystic fibrosis” (priority 1998, dated 1999).
Read-outs that look alike come from different tables or passages of the source.

Columns and labels:
wt-CFTR [1] = target: T1, wt-CFTR (Homo sapiens, UniProt P13569); conditions: for TC1 (short mean closed time) / TC2 (long mean closed time) / TO1 (mean open time) / TO2 (long mean open time): Table 1
Protocol: (A): continuous recordings, 4 minutes in length, of a cell-attached patch of wt-CFTR in the presence of 10 μM forskolin or 10 μM forskolin+50 μM genistein are shown. […] (B): dwell-time analysis of (A).
A continuous recording, 12 minutes in length, of cell-attached patch is shown. wt-CFTR was activated with 50 μM forskolin prior to start of trace and was present throughout recording Genistein (50 μM) was present as indicated.
(§1) Electrophysiology: CFTR channel currents were recorded at room temperature (~22° C.) with a patch-clamp amplifier (EPC-9, Heka Electronic), filtered at 100 Hz with a built-in three-pole Bessel filter, and stored on videotapes. Data were subsequently refiltered at 25 Hz with an eight-pole Bessel filter (Frequency Device, Havervill, Mass.) and captured onto a hard disk at a sampling rate of 50 Hz. […] Patch-clamp electrodes were made from Corning 7052 glass capillaries (Warner Instrument, Hammed, Conn.). The pipette resistance was usually 3-5 M.OMEGA., and the seal resistance was >20 G.OMEGA.. The pipette solution contained (in mM) 140 N-methyl-D-glucamine chloride (NMDG-C1), 2 MgCl2, 5Ca Cl2, and 10 HEPES (pH 7.4 with NMDG). The superfusion solution contained (in mM) 150 […], 2 MgCl2, 1 EGTA, 5 glucose, and 5 HEPES (pH 7.4 with NaOH). In excised inside-out patch experiments, the bath solution contained (in mM) 130 MNDG-Cl, 10 EGTA, 10 HEPES, 20 tetraethylammonium chloride, 8 Tris, and 2 MgCl2 (pH 7.4 with NMDG). Pipette potential was held at 50 mV relative to the bath. Downward deflections represent channel opening.
(§2) Statistics: Mean currents and variance were estimated with Igor (Wavemetrics, Lake Oswego, Oreg.). Parameters for mean current-variance relationships and dose-response curves were obtained from least-square fitting with Sigmaplot (Jandel, San Rafael, Calif.). Po was calculated from patches containing a single channel by dividing the […]. Dwell-time analysis was described previously [Baukrowitz et al., 1994]. Calculated values are presented as means±SE. Comparisons among data were made using the Student's t-test with P<0.05 considered significant.
To determine how genistein increases Po, the effects of genistein on single-channel kinetics were examined in cell-attached patches using dwell-time analysis. […] Both traces were recorded in the presence of 10 μM forskolin; 50 μM genistein was added prior to the start of the lower trace.

ΔF508-CFTR = ΔF508-CFTR (Homo sapiens, UniProt P13569, DEL508-508); assay: Single-channel kinetics (dwell-time analysis), cell-attached patches; assay type: cell-based; parameters: expressed in transfected cells; host or cells: NIH/3T3 cells, stably transfected (NIH/3T3-ΔF508, gift of Dr. Richard Mulligan)
Protocol: FIGS. 3A and B show recordings of the potentiation of wild-type (wt) and ΔF508-CFTR channel activity by genistein. Channels in cell-attached patches from NIH/3T3-CFTR (FIG. 3A) and NIH/3T3-ΔF508cells (FIG. 3B), were stimulated as indicated with 10 μM forskolin and 50μ genestein.
as §1, §2
To determine how genistein increases Po, the effects of genistein on single-channel kinetics were examined in cell-attached patches using dwell-time analysis. […] Both traces were recorded in the presence of 10 μM forskolin; 50 μM genistein was added prior to the start of the lower trace. […] The mean open times for ΔF508-CFTR were also determined. However, since cell-attached patches containing a single ΔF508-CFTR channel were not observed, a direct assessment of the closed times for ΔF508-CFTR cannot be made. Dwell-time analysis of pooled open times were performed on 14 patches where individual openings of ΔF508-CFTR could be clearly identified.
Table 1. Values are means±SE.

wt-CFTR [2] = target: T1, wt-CFTR; assay type: cell-based; parameters: expressed in transfected cells
Protocol: FIGS. 4A and B are graphs showing the variance analysis of macroscopic currents for wt- and ΔF508-CFTR wherein (A) is a plot of variance as a function of mean-current amplitude for NIH/3T3-CFTR(.circle-solid.) and NIH/3T3-ΔF508 (.smallcircle.) cells stimulated with 10 μM forskolin plus 50 μM genistein. (B) is a plot of variance as a function of mean-current amplitude for NIH/3T3-CFTR (.circle-solid.) and NIH/3T3-ΔF508 (.smallcircle.) cells stimulated with 10 μM forskolin. Lines are least square regressions.
Electrophysiology: CFTR channel currents were recorded at room temperature (~22° C.) with a patch-clamp amplifier (EPC-9, Heka Electronic), filtered at 100 Hz with a built-in three-pole Bessel filter, and stored on videotapes. Data were subsequently refiltered at 25 Hz with an eight-pole Bessel filter (Frequency Device, Havervill, Mass.) and captured onto a hard disk at a sampling rate of 50 Hz. […] Patch-clamp electrodes were made from Corning 7052 glass capillaries (Warner Instrument, Hammed, Conn.). The pipette resistance was usually 3-5 M.OMEGA., and the seal resistance was >20 G.OMEGA.. […]
Statistics: Mean currents and variance were estimated with Igor (Wavemetrics, Lake Oswego, Oreg.). […] Po was calculated from patches containing a single channel by dividing the open channel current amplitude with the mean-current amplitude. […] Calculated values are presented as means±SE. […]

[3] = 50 nM forskolin and 60 μM genistein (so in the source)
[4] = 10 μM forskolin + 50 μM genistein
[5] = Table 1, 10 μM forskolin + 50 μM genistein
[6] = 50 nM forskolin, single exponential fit

T1 sequence (P13569 whole entry): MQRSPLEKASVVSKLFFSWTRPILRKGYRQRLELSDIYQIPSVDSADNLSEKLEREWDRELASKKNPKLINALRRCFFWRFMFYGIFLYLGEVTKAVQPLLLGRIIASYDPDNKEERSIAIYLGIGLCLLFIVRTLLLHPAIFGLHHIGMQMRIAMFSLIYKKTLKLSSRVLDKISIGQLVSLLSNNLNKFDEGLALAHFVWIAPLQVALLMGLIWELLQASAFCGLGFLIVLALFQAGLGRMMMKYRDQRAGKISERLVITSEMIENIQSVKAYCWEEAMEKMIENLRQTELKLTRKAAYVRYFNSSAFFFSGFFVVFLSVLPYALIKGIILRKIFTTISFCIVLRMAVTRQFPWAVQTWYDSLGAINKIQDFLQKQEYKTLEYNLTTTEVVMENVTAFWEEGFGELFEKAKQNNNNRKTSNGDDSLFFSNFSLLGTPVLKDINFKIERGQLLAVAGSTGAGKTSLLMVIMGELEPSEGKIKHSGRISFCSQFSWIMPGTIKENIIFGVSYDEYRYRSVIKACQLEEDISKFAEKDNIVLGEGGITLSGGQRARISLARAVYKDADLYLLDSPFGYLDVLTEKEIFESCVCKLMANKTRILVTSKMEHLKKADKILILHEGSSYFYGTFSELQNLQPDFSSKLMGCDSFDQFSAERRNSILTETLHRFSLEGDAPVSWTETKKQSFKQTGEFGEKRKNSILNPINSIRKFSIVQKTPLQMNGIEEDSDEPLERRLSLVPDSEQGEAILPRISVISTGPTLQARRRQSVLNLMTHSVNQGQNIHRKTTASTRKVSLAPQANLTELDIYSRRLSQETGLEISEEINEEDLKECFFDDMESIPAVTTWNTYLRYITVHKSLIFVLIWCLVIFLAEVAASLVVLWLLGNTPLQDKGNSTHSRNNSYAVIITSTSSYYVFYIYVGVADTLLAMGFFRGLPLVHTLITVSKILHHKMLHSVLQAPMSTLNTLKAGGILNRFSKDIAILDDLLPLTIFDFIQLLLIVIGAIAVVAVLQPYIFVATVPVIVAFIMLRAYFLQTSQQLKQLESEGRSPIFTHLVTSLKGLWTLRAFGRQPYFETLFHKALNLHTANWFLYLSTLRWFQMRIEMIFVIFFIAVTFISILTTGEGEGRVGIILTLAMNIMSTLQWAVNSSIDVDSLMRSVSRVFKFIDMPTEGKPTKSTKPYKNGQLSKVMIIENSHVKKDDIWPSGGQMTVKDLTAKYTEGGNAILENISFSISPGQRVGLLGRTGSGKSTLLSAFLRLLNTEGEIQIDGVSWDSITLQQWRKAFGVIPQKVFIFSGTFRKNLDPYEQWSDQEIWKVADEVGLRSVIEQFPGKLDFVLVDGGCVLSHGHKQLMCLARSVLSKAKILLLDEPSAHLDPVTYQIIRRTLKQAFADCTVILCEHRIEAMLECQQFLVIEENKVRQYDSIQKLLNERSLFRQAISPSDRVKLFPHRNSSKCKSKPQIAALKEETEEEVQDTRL
Sequence of ΔF508-CFTR (P13569 with tags, fused parts or gaps DEL508-508): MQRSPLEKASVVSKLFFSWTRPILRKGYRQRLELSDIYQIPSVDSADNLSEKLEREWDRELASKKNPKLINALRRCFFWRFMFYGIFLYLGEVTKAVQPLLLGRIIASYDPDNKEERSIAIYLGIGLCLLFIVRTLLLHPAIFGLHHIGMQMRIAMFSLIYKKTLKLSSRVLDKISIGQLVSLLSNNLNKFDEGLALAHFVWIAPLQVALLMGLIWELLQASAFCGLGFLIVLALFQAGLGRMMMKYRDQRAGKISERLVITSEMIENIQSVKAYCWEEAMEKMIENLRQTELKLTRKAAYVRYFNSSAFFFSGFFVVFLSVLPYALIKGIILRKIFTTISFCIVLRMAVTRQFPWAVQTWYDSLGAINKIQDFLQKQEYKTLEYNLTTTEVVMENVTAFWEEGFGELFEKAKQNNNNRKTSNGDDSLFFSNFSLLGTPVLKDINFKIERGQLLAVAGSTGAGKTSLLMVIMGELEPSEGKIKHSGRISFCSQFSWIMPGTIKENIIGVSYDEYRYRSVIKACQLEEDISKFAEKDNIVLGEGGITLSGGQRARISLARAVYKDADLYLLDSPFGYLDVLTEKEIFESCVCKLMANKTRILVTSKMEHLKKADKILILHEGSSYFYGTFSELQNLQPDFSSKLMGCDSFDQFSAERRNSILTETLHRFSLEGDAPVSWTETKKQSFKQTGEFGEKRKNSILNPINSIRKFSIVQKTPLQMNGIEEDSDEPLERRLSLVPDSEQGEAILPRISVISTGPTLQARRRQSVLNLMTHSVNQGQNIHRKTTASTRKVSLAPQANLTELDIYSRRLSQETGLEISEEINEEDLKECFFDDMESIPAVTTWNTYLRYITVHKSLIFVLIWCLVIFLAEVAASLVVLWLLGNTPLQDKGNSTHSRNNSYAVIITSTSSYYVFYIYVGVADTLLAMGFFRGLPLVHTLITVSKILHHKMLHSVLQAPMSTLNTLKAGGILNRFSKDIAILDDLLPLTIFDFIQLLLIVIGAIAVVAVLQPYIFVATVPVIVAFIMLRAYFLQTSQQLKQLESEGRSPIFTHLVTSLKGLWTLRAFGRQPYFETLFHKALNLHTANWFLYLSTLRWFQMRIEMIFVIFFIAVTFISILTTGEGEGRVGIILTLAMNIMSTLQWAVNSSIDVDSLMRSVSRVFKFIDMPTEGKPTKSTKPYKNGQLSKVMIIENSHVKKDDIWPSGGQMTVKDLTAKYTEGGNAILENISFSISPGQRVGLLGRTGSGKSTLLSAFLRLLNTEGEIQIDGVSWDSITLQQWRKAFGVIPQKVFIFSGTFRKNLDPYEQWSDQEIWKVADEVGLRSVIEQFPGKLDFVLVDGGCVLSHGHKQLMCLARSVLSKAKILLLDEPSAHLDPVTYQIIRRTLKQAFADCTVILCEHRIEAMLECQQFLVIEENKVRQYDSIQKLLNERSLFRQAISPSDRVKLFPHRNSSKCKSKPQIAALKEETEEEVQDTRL

O=c1c(-c2ccc(O)cc2)coc2cc(O)cc(O)c12 [Genistein, 4',5,7-trihydroxyisoflavone]
increase in Po by genistein (wt-CFTR [1]; 50 nM forskolin): > 10 fold
mean closed time (wt-CFTR [1]; [3]): ~ 2.5 seconds
mean open time (wt-CFTR [1]; [3]): ~ 3.0 seconds
open probability Po (wt-CFTR [1]; 50 nM forskolin plus 50 μM genistein): 0.79
open probability Po (wt-CFTR [1]; 10 μM forskolin plus 50 μM genistein, four channels): 0.71±0.06
TC1 (short mean closed time) (wt-CFTR [1]; [4]): 0.49 ± 0.08
TC2 (long mean closed time) (wt-CFTR [1]; [4]): 3.76 ± 1.09
TO1 (mean open time) (wt-CFTR [1]; [4]): 0.28 ± 0.11
TO2 (long mean open time) (wt-CFTR [1]; 10 μM forskolin + 50 μM genistein, significant, <0.05): 2.10 ± 0.30
effect on long closed time (wt-CFTR [1]; wt-CFTR, FIG. 7): dramatically decreases the long closed time
increase of TO2 of forskolin-activated ΔF508-CFTR current by genistein (ΔF508-CFTR; 10 μM forskolin): two-to threefold
TO1 (mean open time) (ΔF508-CFTR; [5]): 0.31 ± 0.17
TO2 (long mean open time) (ΔF508-CFTR; [5]): 2.63 ± 0.37
slope of variance vs mean current (proportional to 1-Po) (wt-CFTR [2]; 10 μM forskolin and 50 μM genistein): 0.17±0.02 pA

C=C[C@@]1(C)CC(=O)[C@]2(O)[C@@]3(C)[C@@H](O)CCC(C)(C)[C@@H]3[C@H](O)[C@H](OC(C)=O)[C@@]2(C)O1 [forskolin]
TC2 (wt-CFTR [1]; 50 nM forskolin): ~ 22 seconds
open probability Po (wt-CFTR [1]; 50 nM forskolin): 0.07
mean closed time (wt-CFTR [1]; [6]): ~ 22 seconds
mean open time (wt-CFTR [1]; [6]): ~ 0.9 seconds
TC2 (wt-CFTR [1]; 10 μM forskolin): ~ 3 seconds
open probability Po (wt-CFTR [1]; 10 μM forskolin, four channels): 0.27±0.03
TC1 (short mean closed time) (wt-CFTR [1]; 10 μM forskolin): 0.39 ± 0.11
TC2 (long mean closed time) (wt-CFTR [1]; 10 μM forskolin): 2.98 ± 0.81
TO1 (mean open time) (wt-CFTR [1]; 10 μM forskolin): 0.24 ± 0.01
TO2 (long mean open time) (wt-CFTR [1]; 10 μM forskolin): 0.88 ± 0.09
increase of long closed time on reducing forskolin (wt-CFTR [1]; forskolin reduced from 10 μM to 50 nM): ~ 10 fold
average long closing time (ΔF508-CFTR; 10 μM forskolin alone, at least 5 channels in patch): 6.1 s
TO2 (so in the source), estimated (ΔF508-CFTR; 10 μM forskolin, from observed closed time and minimal number of channels): about 30 seconds
TO1 (mean open time) (ΔF508-CFTR; Table 1, 10 μM forskolin): 0.30 ± 0.11
TO2 (long mean open time) (ΔF508-CFTR; Table 1, 10 μM forskolin): 0.92 ± 0.12
TC2 (long mean closed time), estimation (ΔF508-CFTR; Table 1, 10 μM forskolin, estimated from observed closed time and minimum number of channels): > 30
slope of variance vs mean current (proportional to 1-Po) (wt-CFTR [2]; 10 μM forskolin): 0.27±0.02 pA
